# Measured values: patent US20100120775A1, “Farnesoid X Receptor Agonists” (SMITHKLINE BEECHAM CORPORATION, priority 2006, published 2010)
# Molecular target: T1, Human FXRα Ligand Binding Domain (Homo sapiens, UniProt Q96RI1)
# T1 construct: polyhistidine (pRSET-A vector) (N); made in house; host or cells: E. coli BL21 (DE3), pRSET-A vector
# T1 sequence (Q96RI1 237-472 isoform Q96RI1-2): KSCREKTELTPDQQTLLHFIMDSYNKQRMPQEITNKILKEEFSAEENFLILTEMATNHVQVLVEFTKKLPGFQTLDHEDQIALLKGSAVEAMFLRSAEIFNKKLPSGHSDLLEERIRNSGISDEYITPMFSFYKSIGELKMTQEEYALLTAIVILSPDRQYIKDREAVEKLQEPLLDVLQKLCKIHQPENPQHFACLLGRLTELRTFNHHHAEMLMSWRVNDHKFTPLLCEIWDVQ
# Test: FXR Cofactor Binding Assay (FXR LBD / SRC-1 peptide, time resolved fluorescence)
# Conditions: FXRα LBD with biotinylated SRC-1 (LCD2, 676-700) peptide
# Text: Determination of a ligand mediated cofactor peptide interaction to quantify ligand binding to the nuclear receptor Farnesoid X Receptor (FXR). The method measures the ability of putative ligands to modulate the interaction between the purified bacterial expressed FXRα ligand binding domain (LBD) and a synthetic biotinylated peptide based on residues 676-700 of steroid receptor coactivator-1 (SRC-1) (LXXLL-containing domain-2 where L is the amino acid leucine and X indicates any other amino acid (LCD2), 676-700). The sequence of the SRC-1 peptide used is as published in Iannone, M. A., et al., 2001 Cytometry 44:326-337 where the N-terminus was biotinylated (B) and the C-terminus was amidated. Detection of the associated complex was measured by time resolved fluorescence (TRF). The purified LBD of FXR was labeled with biotin then mixed with stoichiometric amounts of allophycocyanin (APC) labeled streptavidin (Molecular Probes). The biotinylated peptide was then mixed with a ½ stoichiometric amount of europium labeled streptavidin (Wallac Inc). Each was then blocked with a 5 fold excess of biotin and allowed to equilibrate for 15 min. Equimolar amounts of receptor and peptide were mixed together and were allowed to equilibrate for at least 30 min prior to the addition to either a variable or constant concentrations of the sample for which the affinity is to be determined. After equilibration, the time-resolved fluorescent signal was quantitated using a fluorescent plate reader. The affinity of the test compound was estimated from a plot of fluorescence versus concentration of test compound added.
# A basal level of FXR: peptide formation is observed in the absence of added ligand. Ligands that promote the complex formation induce a concentration-dependent increase in time-resolved fluorescent signal. Compounds which bind equally well to both monomeric FXR and to the FXR: peptide complex would be expected to give no change in signal, whereas ligands which bind preferentially to the monomeric receptor would be expected to induce a concentration-dependent decrease in the observed signal.
# Human FXRα Ligand Binding Domain (FXRα LBD) was expressed in E. coli strain BL21 (DE3) as an amino-terminal polyhistidine tagged fusion protein. Expression was under the control of an isopropyl-13-D-thiogalactopyranoside (IPTG) inducible T7 promoter. DNA encoding this recombinant protein is subcloned into the pRSET-A expression vector (Invitrogen). The coding sequence of Human FXRα LBD was derived from Genbank accession number U 68233 (amino acids 237 to 472).
# Routinely, 30-40 g cell paste (equivalent to 2-3 liters of the fermentation batch) was resuspended in 200-250 mL Tris buffered saline (TBS), pH 7.2 (25 mM Tris-hydroxymethylamino methane (Tris), 150 mM sodium chloride). Cells were lysed by passing 3 times through a French Press and cell debris was removed by centrifugation (30 minutes, 20,000×gravity, 4° C.). The cleared supernatant was filtered through course pre-filters, and TBS, pH 7.2, 500 mM imidazole was added to obtain a final imidazole concentration of 50 mM. This lysate was loaded onto a column (6×8 cm) packed with Sepharose [Ni^|| charged]Chelation resin (Pharmacia) and pre-equilibrated with TBS pH 7.2/50 mM imidazole. After washing to baseline absorbance with equilibration buffer, the column was washed with one column volume of TBS pH 7.2 containing 90 mM imidazole. FXRα LBD was eluted directly with 365 mM imidazole. Column fractions were pooled and dialyzed against TBS, pH 7.2, containing 0.5 mM EDTA and 5 mM DTT. The dialyzed protein sample was concentrated using Centri-prep 10 K (Amicon) and subjected to size exclusion, using a column (3×90 cm) packed with Sepharose S-75 resin (Pharmacia) pre-equilibrated with TBS, pH 7.2, containing 0.5 mM ethylene diamine tetraacetic acid (EDTA) and 5 mM dithiothreitol (DTT). […]
row,SMILES,Activity (pEC50)
1,"CC(C)c1onc(-c2c(Cl)cccc2Cl)c1COc1ccc(-c2ccc3nc(C(=O)O)ccc3c2)cc1 [Example 1i, Sodium 6-[4-({[3-(2,6-dichlorophenyl)-5-(1-methylethyl)-4-isoxazolyl]methyl}oxy)phenyl]-2-quinolinecarboxylate]",++ (++ indicates a pEC50 6-6.99)
2,"CC(C)c1onc(-c2c(Cl)cccc2Cl)c1COc1ccc(-c2ccc3nc(C(=O)O)ccc3c2)cc1 [Example 1h, Potassium 6-[4-({[3-(2,6-Dichlorophenyl)-5-(1-methylethyl)-4-isoxazolyl]methyl}oxy)phenyl]-2-quinolinecarboxylic Acid]",++ (++ indicates a pEC50 6-6.99)

# Same assay, conditions: FXRα LBD with biotinylated SRC-1 (LCD2, 676-700) peptide, read-out: Activity (pEC50) (converted)
row,SMILES,EC50 [µM]
1,"O=C(O)c1ccc2cc(-c3ccc(OCc4c(-c5c(Cl)cccc5Cl)noc4C4CCC4)cc3)ccc2n1 [Example 7, 6-[4-({[5-Cyclobutyl-3-(2,6-dichlorophenyl)-4-isoxazolyl]methyl}oxy)phenyl]-2-quinolinecarboxylic acid]",0.102 to 1
2,"Cc1cccc(C)c1OCc1noc(C2CCC2)c1COc1ccc(-c2ccc3cc(C(=O)O)ncc3c2)cc1 [Example 17, 7-(4-{[(5-Cyclobutyl-3-{[(2,6-dimethylphenyl)oxy]methyl}-4-isoxazolyl)methyl]oxy}phenyl)-3-isoquinolinecarboxylic acid]",0.102 to 1
3,O=C(O)c1ccc2cc(-c3ccc(OCc4c(-c5c(Cl)cncc5Cl)noc4C4CCC4)cc3)ccc2n1 [Example 8],0.102 to 1
4,"CC(C)c1onc(COc2c(Cl)cccc2Cl)c1COc1ccc(-c2ccc3nc(C(=O)O)ccc3c2)cc1 [Example 20, 6-[4-({[3-{[(2,6-Dichlorophenyl)oxy]methyl}-5-(1-methylethyl)-4-isoxazolyl]methyl}oxy)phenyl]-2-quinolinecarboxylic acid]",0.102 to 1
5,"CC(C)c1onc(CSc2c(Cl)cccc2Cl)c1COc1ccc(-c2ccc3nc(C(=O)O)ccc3c2)cc1 [Example 22, 6-[4-({[3-{[(2,6-Dichlorophenyl)thio]methyl}-5-(1-methylethyl)-4-isoxazolyl]methyl}oxy)phenyl]-2-quinolinecarboxylic acid]",0.102 to 1
6,"O=C(O)c1ccc2cc(-c3ccc(OCc4c(-c5c(Cl)cccc5Cl)noc4C4CCCC4)cc3)ccc2n1 [Example 6, 6-[4-({[5-Cyclopentyl-3-(2,6-dichlorophenyl)-4-isoxazolyl]methyl}oxy)phenyl]-2-quinolinecarboxylic acid]",0.102 to 1
7,"CC(C)c1onc(-c2c(Cl)cccc2Cl)c1COc1ccc(-c2ccc3nc(C(=O)O)ccc3c2)cc1 [Example 1g, 6-[4-({[3-(2,6-Dichlorophenyl)-5-(1-methylethyl)-4-isoxazolyl]methyl}oxy)phenyl]-2-quinolinecarboxylic acid]",0.102 to 1
8,"CC[C@H](C)c1onc(-c2c(Cl)cccc2Cl)c1COc1ccc(-c2ccc3nc(C(=O)O)ccc3c2)cc1 [Example 13, 6-{4-[({3-(2,6-Dichlorophenyl)-5-[(1S)-1-methylpropyl]-4-isoxazolyl}methyl)oxy]phenyl}-2-quinolinecarboxylic acid]",0.102 to 1
9,"O=C(O)c1ccc2cc(-c3ccc(OCc4c(-c5c(Cl)cncc5Cl)noc4C4CC4)cc3)ccc2n1 [Example 12, 6-[4-({[5-Cyclopropyl-3-(3,5-dichloro-4-pyridinyl)-4-isoxazolyl]methyl}oxy)phenyl]-2-quinolinecarboxylic acid]",0.102 to 1
10,"O=C(O)c1cc2ccc(-c3ccc(OCc4c(-c5c(Cl)cncc5Cl)noc4C4CCC4)cc3)cc2cn1 [Example 9, 7-[4-({[5-Cyclobutyl-3-(3,5-dichloro-4-pyridinyl)-4-isoxazolyl]methyl}oxy)phenyl]-3-isoquinolinecarboxylic acid]",0.102 to 1
11,"Cc1cccc(C)c1OCc1noc(C(C)C)c1COc1ccc(-c2ccc3cc(C(=O)O)ncc3c2)cc1 [Example 16, 7-[4-({[3-{[(2,6-Dimethylphenyl)oxy]methyl}-5-(1-methylethyl)-4-isoxazolyl]methyl}oxy)phenyl]-3-isoquinolinecarboxylic acid]",0.102 to 1
12,"CC(C)c1onc(CS(=O)(=O)c2c(Cl)cccc2Cl)c1COc1ccc(-c2ccc3nc(C(=O)O)ccc3c2)cc1 [Example 24, 6-[4-({[3-{[(2,6-Dichlorophenyl)sulfonyl]methyl}-5-(1-methylethyl)-4-isoxazolyl]methyl}oxy)phenyl]-2-quinolinecarboxylic acid]",1.02 to 10
13,"CC(C)c1onc(C[S+]([O-])c2c(Cl)cccc2Cl)c1COc1ccc(-c2ccc3nc(C(=O)O)ccc3c2)cc1 (centres unmarked) [Example 23, 6-[4-({[3-{[(2,6-Dichlorophenyl)sulfinyl]methyl}-5-(1-methylethyl)-4-isoxazolyl]methyl}oxy)phenyl]-2-quinolinecarboxylic acid]",0.102 to 1
14,"CC(C)c1onc(COC2CCCC2)c1COc1ccc(-c2ccc3nc(C(=O)O)ccc3c2)cc1 [Example 27, 6-[4-({[3-[(Cyclopentyloxy)methyl]-5-(1-methylethyl)-4-isoxazolyl]methyl}oxy)phenyl]-2-quinolinecarboxylic acid]",1.02 to 10

# More lines, now with the values ahead:
row,EC50 [µM],SMILES
1,0.102 to 1,"Cc1cc2cc(-c3ccc(OCc4c(-c5c(Cl)cccc5Cl)noc4C(C)C)cc3)ccc2nc1C(=O)O [Example 31, 6-[4-({[3-(2,6-dichlorophenyl)-5-(1-methylethyl)-4-isoxazolyl]methyl}oxy)phenyl]-3-methyl-2-quinolinecarboxylic acid]"
2,0.102 to 1,"CC(C)c1onc(-c2c(Cl)cccc2Cl)c1COc1ccc(-c2ccc3c(C(=O)O)nccc3c2)cc1 [Example 36, 6-[4-({[3-(2,6-Dichlorophenyl)-5-(1-methylethyl)-4-isoxazolyl]methyl}oxy)phenyl]-1-isoquinolinecarboxylic acid]"
3,0.102 to 1,"Cc1cc(OCc2c(-c3c(Cl)cccc3Cl)noc2C(C)C)ccc1-c1ccc2nc(C(=O)O)ccc2c1 [Example 33, 6-[4-({[3-(2,6-Dichlorophenyl)-5-(1-methylethyl)-4-isoxazolyl]methyl}oxy)-2-methylphenyl]-2-quinolinecarboxylic acid]"
4,< 0.1,"Cc1cc(C(=O)O)nc2ccc(-c3ccc(OCc4c(-c5c(Cl)cccc5Cl)noc4C(C)C)cc3)cc12 [Example 34, 6-[4-({[3-(2,6-Dichlorophenyl)-5-(1-methylethyl)-4-isoxazolyl]methyl}oxy)phenyl]-4-methyl-2-quinolinecarboxylic acid]"
5,0.102 to 1,"Cc1nc(C(=O)O)nc2ccc(-c3ccc(OCc4c(-c5c(Cl)cccc5Cl)noc4C(C)C)cc3)cc12 [Example 37, 6-[4-({[3-(2,6-Dichlorophenyl)-5-(1-methylethyl)-4-isoxazolyl]methyl}oxy)phenyl]-4-methyl-2-quinazolinecarboxylic acid]"
6,0.102 to 1,"CC(C)c1onc(-c2c(Cl)ccnc2Cl)c1COc1ccc(-c2ccc3nc(C(=O)O)ccc3c2)cc1 [Example 28, 6-[4-({[3-(2,4-Dichloro-3-pyridinyl)-5-(1-methylethyl)-4-isoxazolyl]methyl}oxy)phenyl]-2-quinolinecarboxylic acid]"
7,0.102 to 1,"CC(C)c1onc(-c2c(Cl)cccc2Cl)c1COc1ccc(-c2ccc3nc(C(=O)O)cnc3c2)cc1 [Example 39, 6-[4-({[3-(2,6-Dichlorophenyl)-5-(1-methylethyl)-4-isoxazolyl]methyl}oxy)phenyl]-2-quinoxalinecarboxylic acid]"
